Reference: PubChem BioAssay AID1505 (Sanford-Burnham Center for Chemical Genomics, 2009)
≈ marks a conversion by molar mass, not a printed value. Calls of active or inactive are those of the source. How the calls were made is not given here.

System: Y. pseudotuberculosis YP126 growth, MIC at 37 C
Test: Y. pseudotuberculosis growth inhibition MIC, strain YP126, 22/37/40 C (AID 1505)

SMILES | MIC | MIC (measured here: MIC at 22 C) | MIC (measured here: MIC at 40 C)
O=C(Nc1ccc2[nH]ccc2c1)c1cccs1 | 400 µM (inactive) (≈ 96.9 µg/mL) | 400 µM (≈ 96.9 µg/mL) | 400 µM (≈ 96.9 µg/mL)
Cc1ccc(CNC(=O)c2ccc([N+](=O)[O-])o2)cc1 | 25 µM (≈ 6.51 µg/mL) | 400 µM (≈ 104 µg/mL) | < 12 µM
